Experimental data from PubChem BioAssay (NCI).
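96-well plates; 48 h exposure; 5 concentrations. Endpoints by linear interpolation between flanking doses. Not reached: highest tested concentration assigned. GI50 marks 50% less growth. The concentration for full growth arrest is given as TGI.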

How the values were obtained:
Assay in all cases: inhibition of tumour cell growth, NCI panel, 48 h
A498 renal = test system: A498 renal
A549 NSCLC = test system: A549 NSCLC
BT-549 breast = test system: BT-549 breast
CAKI-1 renal = test system: CAKI-1 renal
CCRF-CEM leukemia = test system: CCRF-CEM leukemia
COLO 205 colon = test system: COLO 205 colon
DU-145 prostate = test system: DU-145 prostate
EKVX NSCLC = test system: EKVX NSCLC
HCC-2998 colon = test system: HCC-2998 colon
HCT-15 colon = test system: HCT-15 colon
HL-60(TB) leukemia = test system: HL-60(TB) leukemia
HOP-62 NSCLC = test system: HOP-62 NSCLC
HOP-92 NSCLC = test system: HOP-92 NSCLC
HS 578T breast = test system: HS 578T breast
HT29 colon = test system: HT29 colon
IGROV1 ovarian = test system: IGROV1 ovarian
K-562 leukemia = test system: K-562 leukemia
KM12 colon = test system: KM12 colon
LOX IMVI melanoma = test system: LOX IMVI melanoma
MCF7 breast = test system: MCF7 breast
MDA-MB-231 breast = test system: MDA-MB-231 breast
MDA-MB-435 = test system: MDA-MB-435
MOLT-4 leukemia = test system: MOLT-4 leukemia
NCI-H226 lung = test system: NCI-H226 lung
NCI-H23 lung = test system: NCI-H23 lung
NCI-H460 lung = test system: NCI-H460 lung
NCI/ADR-RES ovarian = test system: NCI/ADR-RES ovarian
OVCAR-3 ovarian = test system: OVCAR-3 ovarian
OVCAR-5 ovarian = test system: OVCAR-5 ovarian
OVCAR-8 ovarian = test system: OVCAR-8 ovarian
PC-3 prostate = test system: PC-3 prostate
RPMI-8226 leukemia = test system: RPMI-8226 leukemia
SF-268 CNS = test system: SF-268 CNS
SF-295 CNS = test system: SF-295 CNS
SF-539 CNS = test system: SF-539 CNS
SK-MEL-2 melanoma = test system: SK-MEL-2 melanoma
SK-MEL-28 melanoma = test system: SK-MEL-28 melanoma
SK-MEL-5 melanoma = test system: SK-MEL-5 melanoma
SK-OV-3 ovarian = test system: SK-OV-3 ovarian
SN12C renal = test system: SN12C renal
SNB-19 CNS = test system: SNB-19 CNS
SNB-75 CNS = test system: SNB-75 CNS
SR leukemia = test system: SR leukemia
SW-620 colon = test system: SW-620 colon
T-47D breast = test system: T-47D breast
TK-10 renal = test system: TK-10 renal
UACC-62 melanoma = test system: UACC-62 melanoma
UO-31 renal = test system: UO-31 renal
786-0 renal = test system: 786-0 renal
ACHN renal = test system: ACHN renal
HCT-116 colon = test system: HCT-116 colon
M14 melanoma = test system: M14 melanoma
NCI-H522 lung = test system: NCI-H522 lung
OVCAR-4 ovarian = test system: OVCAR-4 ovarian
U251 CNS = test system: U251 CNS
UACC-257 melanoma = test system: UACC-257 melanoma

Cn1cc(-c2ccc3cc(-c4ccc(CC(=O)Nc5cc(C(C)(C)C)on5)cc4)cnc3c2)cn1
GI50 (A498 renal): 0.269 µM | TGI (A498 renal): 2.26 µM | GI50 (A549 NSCLC): 1.72 µM | TGI (A549 NSCLC): > 100 µM | GI50 (BT-549 breast): 2.08 µM | TGI (BT-549 breast): 31.8 µM | GI50 (CAKI-1 renal): 0.426 µM | TGI (CAKI-1 renal): 3.45 µM | GI50 (CCRF-CEM leukemia): 2.17 µM | TGI (CCRF-CEM leukemia): > 100 µM | GI50 (COLO 205 colon): 2.95 µM | TGI (COLO 205 colon): > 100 µM | GI50 (DU-145 prostate): 1.05 µM | TGI (DU-145 prostate): 10.2 µM | GI50 (EKVX NSCLC): 0.624 µM | TGI (EKVX NSCLC): 3.45 µM | GI50 (HCC-2998 colon): 2.89 µM | TGI (HCC-2998 colon): 21 µM | GI50 (HCT-15 colon): 0.466 µM | TGI (HCT-15 colon): 4.87 µM | GI50 (HL-60(TB) leukemia): 2.66 µM | TGI (HL-60(TB) leukemia): 7.45 µM | GI50 (HOP-62 NSCLC): 2.54 µM | TGI (HOP-62 NSCLC): > 100 µM | GI50 (HOP-92 NSCLC): 4.23 µM | TGI (HOP-92 NSCLC): 26 µM | GI50 (HS 578T breast): 0.397 µM | TGI (HS 578T breast): 15.2 µM | GI50 (HT29 colon): 2.26 µM | TGI (HT29 colon): > 100 µM | GI50 (IGROV1 ovarian): 0.356 µM | TGI (IGROV1 ovarian): 3.52 µM | GI50 (K-562 leukemia): 1.85 µM | TGI (K-562 leukemia): > 100 µM | GI50 (KM12 colon): 0.07 µM | TGI (KM12 colon): 11.2 µM | GI50 (LOX IMVI melanoma): 0.945 µM | TGI (LOX IMVI melanoma): 10.9 µM | GI50 (MCF7 breast): 1.92 µM | TGI (MCF7 breast): 17.8 µM | GI50 (MDA-MB-231 breast): 2.26 µM | TGI (MDA-MB-231 breast): 12.2 µM | GI50 (MDA-MB-435): 1.43 µM | TGI (MDA-MB-435): 3.54 µM | GI50 (MOLT-4 leukemia): 3.01 µM | TGI (MOLT-4 leukemia): > 100 µM | GI50 (NCI-H226 lung): 2.46 µM | TGI (NCI-H226 lung): 34.6 µM | GI50 (NCI-H23 lung): 2.27 µM | TGI (NCI-H23 lung): 10.5 µM | GI50 (NCI-H460 lung): 0.84 µM | TGI (NCI-H460 lung): 2.55 µM | GI50 (NCI/ADR-RES ovarian): 1.84 µM | TGI (NCI/ADR-RES ovarian): 5.11 µM | GI50 (OVCAR-3 ovarian): 2.49 µM | TGI (OVCAR-3 ovarian): 12.7 µM | GI50 (OVCAR-5 ovarian): 4.4 µM | TGI (OVCAR-5 ovarian): 18.9 µM | GI50 (OVCAR-8 ovarian): 2.16 µM | TGI (OVCAR-8 ovarian): > 100 µM | GI50 (PC-3 prostate): 2.4 µM | TGI (PC-3 prostate): 20.8 µM | GI50 (RPMI-8226 leukemia): 2.34 µM | TGI (RPMI-8226 leukemia): > 100 µM | GI50 (SF-268 CNS): 1.96 µM | TGI (SF-268 CNS): 14.8 µM | GI50 (SF-295 CNS): 1.65 µM | TGI (SF-295 CNS): 6.74 µM | GI50 (SF-539 CNS): 0.339 µM | TGI (SF-539 CNS): 14.4 µM | GI50 (SK-MEL-2 melanoma): 0.922 µM | TGI (SK-MEL-2 melanoma): 12.4 µM | GI50 (SK-MEL-28 melanoma): 1.95 µM | TGI (SK-MEL-28 melanoma): 5.25 µM | GI50 (SK-MEL-5 melanoma): 2.31 µM | TGI (SK-MEL-5 melanoma): 6.55 µM | GI50 (SK-OV-3 ovarian): 0.657 µM | TGI (SK-OV-3 ovarian): > 100 µM | GI50 (SN12C renal): 1.15 µM | TGI (SN12C renal): 10.4 µM | GI50 (SNB-19 CNS): 2.18 µM | TGI (SNB-19 CNS): 8.68 µM | GI50 (SNB-75 CNS): 1.11 µM | TGI (SNB-75 CNS): 3.03 µM | GI50 (SR leukemia): 3.07 µM | TGI (SR leukemia): > 100 µM | GI50 (SW-620 colon): 1.54 µM | TGI (SW-620 colon): 3.99 µM | GI50 (T-47D breast): 2.68 µM | TGI (T-47D breast): > 100 µM | GI50 (TK-10 renal): 1.63 µM | TGI (TK-10 renal): 10.4 µM | GI50 (UACC-62 melanoma): 1.02 µM | TGI (UACC-62 melanoma): 3.12 µM | GI50 (UO-31 renal): 0.382 µM | TGI (UO-31 renal): 3.14 µM

COC(=O)C1=C(O)[C@H](C(=O)OC)C2(O)C(C(=O)OC)[C@H](c3ccc(OC(=O)C(C)c4ccc(CC(C)C)cc4)cc3)C[C@@H]1[C@@H]2C(=O)OC (some centres undefined)
GI50 (786-0 renal): 20.4 µM | TGI (786-0 renal): > 50 µM | GI50 (A549 NSCLC): 26.8 µM | TGI (A549 NSCLC): > 50 µM | GI50 (ACHN renal): 12 µM | TGI (ACHN renal): 31.3 µM | GI50 (BT-549 breast): 1.03 µM | TGI (BT-549 breast): 3.68 µM | GI50 (CAKI-1 renal): > 50 µM | TGI (CAKI-1 renal): > 50 µM | GI50 (COLO 205 colon): 12.3 µM | TGI (COLO 205 colon): 41.3 µM | GI50 (DU-145 prostate): 0.804 µM | TGI (DU-145 prostate): 9.58 µM | GI50 (EKVX NSCLC): 0.97 µM | TGI (EKVX NSCLC): 6.7 µM | GI50 (HCC-2998 colon): 7.95 µM | TGI (HCC-2998 colon): 15.8 µM | GI50 (HCT-116 colon): > 50 µM | TGI (HCT-116 colon): > 50 µM | GI50 (HCT-15 colon): 12.9 µM | TGI (HCT-15 colon): > 50 µM | GI50 (HOP-62 NSCLC): 31.7 µM | TGI (HOP-62 NSCLC): > 50 µM | GI50 (HOP-92 NSCLC): 32.8 µM | TGI (HOP-92 NSCLC): > 50 µM | GI50 (HS 578T breast): 33 µM | TGI (HS 578T breast): > 50 µM | GI50 (IGROV1 ovarian): 15 µM | TGI (IGROV1 ovarian): 41.3 µM | GI50 (K-562 leukemia): 0.695 µM | TGI (K-562 leukemia): > 50 µM | GI50 (KM12 colon): 40.3 µM | TGI (KM12 colon): > 50 µM | GI50 (LOX IMVI melanoma): 6.06 µM | TGI (LOX IMVI melanoma): 14.9 µM | GI50 (M14 melanoma): 25.3 µM | TGI (M14 melanoma): > 50 µM | GI50 (MCF7 breast): 8.18 µM | TGI (MCF7 breast): > 50 µM | GI50 (MDA-MB-231 breast): 5.52 µM | TGI (MDA-MB-231 breast): 22.8 µM | GI50 (MDA-MB-435): 12.8 µM | TGI (MDA-MB-435): 28.2 µM | GI50 (NCI-H23 lung): 11.1 µM | TGI (NCI-H23 lung): 24.9 µM | GI50 (NCI-H460 lung): 13.2 µM | TGI (NCI-H460 lung): > 50 µM | GI50 (NCI-H522 lung): 14.3 µM | TGI (NCI-H522 lung): > 50 µM | GI50 (NCI/ADR-RES ovarian): > 50 µM | TGI (NCI/ADR-RES ovarian): > 50 µM | GI50 (OVCAR-3 ovarian): > 50 µM | TGI (OVCAR-3 ovarian): > 50 µM | GI50 (OVCAR-4 ovarian): 11.7 µM | TGI (OVCAR-4 ovarian): > 50 µM | GI50 (OVCAR-5 ovarian): 17 µM | TGI (OVCAR-5 ovarian): > 50 µM | GI50 (OVCAR-8 ovarian): 13.1 µM | TGI (OVCAR-8 ovarian): > 50 µM | GI50 (PC-3 prostate): 35 µM | TGI (PC-3 prostate): > 50 µM | GI50 (RPMI-8226 leukemia): 4.62 µM | TGI (RPMI-8226 leukemia): > 50 µM | GI50 (SF-268 CNS): > 50 µM | TGI (SF-268 CNS): > 50 µM | GI50 (SF-295 CNS): > 50 µM | TGI (SF-295 CNS): > 50 µM | GI50 (SF-539 CNS): 1.4 µM | TGI (SF-539 CNS): 8.05 µM | GI50 (SK-MEL-2 melanoma): 24.9 µM | TGI (SK-MEL-2 melanoma): > 50 µM | GI50 (SK-MEL-28 melanoma): 12.6 µM | TGI (SK-MEL-28 melanoma): 40.8 µM | GI50 (SK-MEL-5 melanoma): 15 µM | TGI (SK-MEL-5 melanoma): > 50 µM | GI50 (SK-OV-3 ovarian): 38.5 µM | TGI (SK-OV-3 ovarian): > 50 µM | GI50 (SN12C renal): 9.58 µM | TGI (SN12C renal): 22.9 µM | GI50 (SNB-19 CNS): 40 µM | TGI (SNB-19 CNS): > 50 µM | GI50 (SR leukemia): 0.754 µM | TGI (SR leukemia): > 50 µM | GI50 (SW-620 colon): 18.1 µM | TGI (SW-620 colon): > 50 µM | GI50 (T-47D breast): 12.3 µM | TGI (T-47D breast): > 50 µM | GI50 (TK-10 renal): 30.6 µM | TGI (TK-10 renal): > 50 µM | GI50 (U251 CNS): 11.6 µM | TGI (U251 CNS): 30.2 µM | GI50 (UACC-257 melanoma): 27.2 µM | TGI (UACC-257 melanoma): > 50 µM | GI50 (UACC-62 melanoma): 9.41 µM | TGI (UACC-62 melanoma): 22.4 µM | GI50 (UO-31 renal): 12.3 µM | TGI (UO-31 renal): > 50 µM
